Measurements taken from patent publication US8063071B2 (GlaxoSmithKline, LLC, priority 2007, dated 2011).
Where a name gives a salt, the structure may show the parent alone.

Tests used:
[1] = system: human monocyte stimulated cytokine production (TNF-α); assay: Monocyte assay (LPS-stimulated TNF-α production); type: cell-based; details: for IC50: 24 h, 200 ng/mL LPS, TNF-α by ELISA; for inhibition at 0.3 µM: read-out: inhibition at 300 nM in the monocyte assay
In short: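 TNF-α release was measured by ELISA after 24 hrs at 37 C. Cells were stimulated with 200 ng/mL E. coli LPS, with compound added 30 minutes beforehand (0.1% DMSO vehicle). Cells were Ficoll/MACS-isolated CD14+ human monocytes adhered at 1×10^6 cells/mL, and viability was checked by trypan blue.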

[2] = target: T1, Recombinant human IKKβ (residues 1-737) (Homo sapiens, UniProt O14920); assay: IKK2 assay (TR-FRET); type: biochemical; details: ATP 1 μM final, read-out: pIC50 against IKK2 (converted)
T1 construct: Recombinant human IKKβ (residues 1-737); GST (C); made in house
T1 sequence (O14920 1-737): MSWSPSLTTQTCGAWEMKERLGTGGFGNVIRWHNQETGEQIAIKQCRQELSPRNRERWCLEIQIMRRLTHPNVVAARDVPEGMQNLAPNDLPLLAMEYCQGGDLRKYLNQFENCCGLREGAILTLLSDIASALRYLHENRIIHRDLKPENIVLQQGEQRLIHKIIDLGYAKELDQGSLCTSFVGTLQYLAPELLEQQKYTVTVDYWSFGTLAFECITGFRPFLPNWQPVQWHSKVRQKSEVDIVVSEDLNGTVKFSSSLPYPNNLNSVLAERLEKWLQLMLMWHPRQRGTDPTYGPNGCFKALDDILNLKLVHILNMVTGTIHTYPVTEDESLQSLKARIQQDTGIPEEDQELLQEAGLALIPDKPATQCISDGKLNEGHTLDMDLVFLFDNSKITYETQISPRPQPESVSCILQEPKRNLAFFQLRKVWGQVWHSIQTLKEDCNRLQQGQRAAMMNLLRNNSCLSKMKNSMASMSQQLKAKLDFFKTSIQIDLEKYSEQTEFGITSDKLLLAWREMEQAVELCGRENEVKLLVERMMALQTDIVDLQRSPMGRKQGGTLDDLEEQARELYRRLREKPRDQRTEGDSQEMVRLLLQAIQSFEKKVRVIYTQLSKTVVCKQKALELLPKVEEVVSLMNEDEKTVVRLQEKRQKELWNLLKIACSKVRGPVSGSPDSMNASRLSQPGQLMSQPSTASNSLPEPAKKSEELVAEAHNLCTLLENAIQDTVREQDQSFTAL
In short: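 TR-FRET readout (665 nm over 620 nm Eu reference) of GST-IB Ser32/36 phosphorylation after 60 min detection. Reaction: 1 μM ATP, 25 nM substrate, 0.5-5 nM GST-fused IKKβ 1-737 from baculovirus, pH 7.4 HEPES buffer, 1.7% DMSO, 15 min room temperature, EDTA-terminated.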

Row | IC50 [1] [µM] | IC50 [2] [µM] | SMILES | inhibition at 0.3 µM [1] [%]
1 | ≤ 1.5 | ≤ 10 | CC(C)S(=O)(=O)N1CCC(c2c[nH]c3c(C(N)=O)cc(-c4csc(CN(C)CCO)c4)cc23)CC1 [Example 397, 5-(5-{[(2-hydroxyethyl)(methyl)amino]methyl}-3-thienyl)-3-{1-[(1-methylethyl)sulfonyl]-4-piperidinyl}-1H-indole-7-carboxamide] | –
2 | ≤ 1.5 | ≤ 10 | C=CCN(C)Cc1cc(-c2cc(C(N)=O)c3[nH]cc(C4CCN(S(=O)(=O)CC)CC4)c3c2)cs1 [Example 399, 3-[1-(ethylsulfonyl)-4-piperidinyl]-5-(5-{[methyl(2-propen-1-yl)amino]methyl}-3-thienyl)-1H-indole-7-carboxamide] | –
3 | ≤ 1.5 | ≤ 10 | CCS(=O)(=O)N1CCC(c2c[nH]c3c(C(N)=O)cc(-c4csc(CN(C)CC#N)c4)cc23)CC1 [Example 401, 5-(5-{[(cyanomethyl)(methyl)amino]methyl}-3-thienyl)-3-[1-(ethylsulfonyl)-4-piperidinyl]-1H-indole-7-carboxamide] | –
4 | ≤ 1.5 | ≤ 10 | CCS(=O)(=O)N1CCC(c2c[nH]c3c(C(N)=O)cc(-c4csc(CN(C)[C@@H](C)CO)c4)cc23)CC1 [Example 408, 3-[1-(ethylsulfonyl)-4-piperidinyl]-5-(5-{[[(1S)-2-hydroxy-1-methylethyl](methyl)amino]methyl}-3-thienyl)-1H-indole-7-carboxamide trifluoroacetate] | –
5 | ≤ 1.5 | ≤ 10 | CCS(=O)(=O)N1CCC(c2c[nH]c3c(C(N)=O)cc(-c4csc(CN(C)CC5CC5)c4)cc23)CC1 [Example 409, 5-(5-{[(cyclopropylmethyl)(methyl)amino]methyl}-3-thienyl)-3-[1-(ethylsulfonyl)-4-piperidinyl]-1H-indole-7-carboxamide trifluoroacetate] | –
6 | – | ≤ 10 | CCSCCN(C)Cc1cc(-c2cc(C(N)=O)c3[nH]cc(C4CCN(S(=O)(=O)CC)CC4)c3c2)cs1 [Example 430, 3-[1-(ethylsulfonyl)-4-piperidinyl]-5-(5-{[[2-(ethylthio)ethyl](methyl)amino]methyl}-3-thienyl)-1H-indole-7-carboxamide] | 0 to 60
7 | – | ≤ 10 | CCS(=O)(=O)N1CCC(c2c[nH]c3c(C(N)=O)cc(-c4csc(CN(C)CCSCCO)c4)cc23)CC1 [Example 431, 3-[1-(ethylsulfonyl)-4-piperidinyl]-5-(5-{[{2-[(2-hydroxyethyl)thio]ethyl}(methyl)amino]methyl}-3-thienyl)-1H-indole-7-carboxamide] | 0 to 60
8 | ≤ 1.5 | ≤ 10 | CCS(=O)(=O)N1CCC(c2c[nH]c3c(C(N)=O)cc(-c4csc(CN(C)C(CO)CO)c4)cc23)CC1 [Example 432, 3-[1-(ethylsulfonyl)-4-piperidinyl]-5-(5-{[[2-hydroxy-1-(hydroxymethyl)ethyl](methyl)amino]methyl}-3-thienyl)-1H-indole-7-carboxamide] | –
9 | – | ≤ 10 | CCOC(=O)N(C)Cc1cc(-c2cc(C(N)=O)c3[nH]cc(C4CCN(S(=O)(=O)CC)CC4)c3c2)cs1 [Example 433, ethyl[(4-{7-(aminocarbonyl)-3-[1-(ethylsulfonyl)-4-piperidinyl]-1H-indol-5-yl}-2-thienyl)methyl]methylcarbamate] | 0 to 60
10 | ≤ 1.5 | ≤ 10 | CCOC(=O)CN(C)Cc1cc(-c2cc(C(N)=O)c3[nH]cc(C4CCN(S(=O)(=O)CC)CC4)c3c2)cs1 [Example 434, ethyl N-[(4-[7-(aminocarbonyl)-3-[1-(ethylsulfonyl)-4-piperidinyl]-1H-indol-5-yl]-2-thienyl)methyl]-N-methylglycinate] | –

The next lines start with the molecule.

Row | SMILES | IC50 [1] [µM] | IC50 [2] [µM] | inhibition at 0.3 µM [1] [%]
11 | CC(C)S(=O)(=O)N1CCC(c2c[nH]c3c(C(N)=O)cc(-c4csc(CN(C)C5CCCC5)c4)cc23)CC1 [Example 396, 5-(5-{[cyclopentyl(methyl)amino]methyl}-3-thienyl)-3-{1-[(1-methylethyl)sulfonyl]-4-piperidinyl}-1H-indole-7-carboxamide] | ≤ 1.5 | ≤ 10 | –
12 | CCS(=O)(=O)N1CCC(c2c[nH]c3c(C(N)=O)cc(-c4csc(CN(C)Cc5c(C)n[nH]c5C)c4)cc23)CC1 [Example 400, 5-(5-{[[(3,5-dimethyl-1H-pyrazol-4-yl)methyl](methyl)amino]methyl}-3-thienyl)-3-[1-(ethylsulfonyl)-4-piperidinyl]-1H-indole-7-carboxamide] | ≤ 1.5 | ≤ 10 | –
13 | CCC(C)N(C)Cc1cc(-c2cc(C(N)=O)c3[nH]cc(C4CCN(S(=O)(=O)CC)CC4)c3c2)cs1 (centres unmarked) [Example 402, 3-[1-(ethylsulfonyl)-4-piperidinyl]-5-(5-{[methyl(1-methylpropyl)amino]methyl}-3-thienyl)-1H-indole-7-carboxamide] | ≤ 1.5 | ≤ 10 | –
14 | CCS(=O)(=O)N1CCC(c2c[nH]c3c(C(N)=O)cc(-c4csc(CN(C)C5CCC5)c4)cc23)CC1 [Example 404, 5-(5-{[cyclobutyl(methyl)amino]methyl}-3-thienyl)-3-[1-(ethylsulfonyl)-4-piperidinyl]-1H-indole-7-carboxamide trifluoroacetate] | ≤ 1.5 | ≤ 10 | –
15 | CCS(=O)(=O)N1CCC(c2c[nH]c3c(C(N)=O)cc(-c4csc(CN(C)C(C)(C)C)c4)cc23)CC1 [Example 406, 5-(5-{[(1,1-dimethylethyl)(methyl)amino]methyl}-3-thienyl)-3-[1-(ethylsulfonyl)-4-piperidinyl]-1H-indole-7-carboxamide trifluoroacetate] | ≤ 1.5 | ≤ 10 | –
16 | CCC(C)(C)N(C)Cc1cc(-c2cc(C(N)=O)c3[nH]cc(C4CCN(S(=O)(=O)CC)CC4)c3c2)cs1 [Example 412, 5-{5-[(1,1-dimethylpropyl)(methyl)amino]methyl}-3-thienyl)-3-[1-(ethylsulfonyl)-4-piperidinyl]-1H-indole-7-carboxamide trifluoroacetate] | ≤ 1.5 | ≤ 10 | –
17 | CCS(=O)(=O)N1CCC(c2c[nH]c3c(C(N)=O)cc(-c4csc(C(C)N(C)CCOC)c4)cc23)CC1 (centres unmarked) [Example 416, 3-[1-(ethylsulfonyl)-4-piperidinyl]-5-[5-(1-{methyl[2-(methyloxy)ethyl]amino}ethyl)-3-thienyl]-1H-indole-7-carboxamide trifluoroacetate] | ≤ 1.5 | ≤ 10 | –
18 | CCCN(C)C(C)c1cc(-c2cc(C(N)=O)c3[nH]cc(C4CCN(S(=O)(=O)CC)CC4)c3c2)cs1 (centres unmarked) [Example 417, 3-[1-(ethylsulfonyl)-4-piperidinyl]-5-(5-{1-[methyl(propyl)amino]ethyl}-3-thienyl)-1H-indole-7-carboxamide trifluoroacetate] | ≤ 1.5 | ≤ 10 | –
19 | CCS(=O)(=O)N1CCC(c2c[nH]c3c(C(N)=O)cc(-c4ccc5c(c4)CNC5)cc23)CC1 [Example 418, 5-(2,3-dihydro-1H-isoindol-5-yl)-3-[1-(ethylsulfonyl)-4-piperidinyl]-1H-indole-7-carboxamide] | ≤ 1.5 | ≤ 10 | –
20 | CCN1Cc2ccc(-c3cc(C(N)=O)c4[nH]cc(C5CCN(S(=O)(=O)CC)CC5)c4c3)cc2C1 [Example 419, 5-(2-ethyl-2,3-dihydro-1H-isoindol-5-yl)-3-[1-(ethylsulfonyl)-4-piperidinyl]-1H-indole-7-carboxamide] | ≤ 1.5 | ≤ 10 | –
21 | CC(C)S(=O)(=O)N1CCC(c2c[nH]c3c(C(N)=O)cc(-c4csc(CN5CCC[C@@H]5C(N)=O)c4)cc23)CC1 [Example 429, 5-(5-{[(2R)-2-(aminocarbonyl)-1-pyrrolidinyl]methyl}-3-thienyl)-3-[1-[(1-methylethyl)sulfonyl]-4-piperidinyl]-1H-indole-7-carboxamide] | – | ≤ 10 | 0 to 60
22 | CCS(=O)(=O)N1CCC(c2c[nH]c3c(C(N)=O)cc(-c4csc(CN(C)C5CCS(=O)(=O)C5)c4)cc23)CC1 (centres unmarked) [Example 436, 5-(5-{[(1,1-dioxidotetrahydro-3-thienyl)(methyl)amino]methyl}-3-thienyl)-3-[1-(ethylsulfonyl)-4-piperidinyl]-1H-indole-7-carboxamide trifluoroacetate] | – | ≤ 10 | 0 to 60
